Here are results for seven compounds from paper PMC11869128, “Bayesian Optimization over Multiple Experimental Fidelities Accelerates Automated Discovery of Drug Molecules” (ACS Central Science, 2025).

Structures are written as SMILES. Read-outs that look alike come from different tables or passages of the source.

Experiment [1] deals with HDAC. Kind of experiment: HDAC fluorometric assay, single-point percent inhibition (medium fidelity). The class given is biochemical. To be noted: for IC50: first iteration, assuming binding follows the Hill equation and is noncooperative, assay run at 20 μM scale, read-out: IC50 corresponding to single point inhibition. The text has this: In the first iteration, the experimental design algorithm recommended that 3,385 candidates be docked (39% of budget), 261 candidates screened for single-point percent inhibition (61% of budget), and no candidates be manually synthesized for full dose–response characterization (0% of budget). The total budget was 100.0 with the same experiment cost structure of 0.01 for docking, 0.2 for single-point, and 1.0 for dose response curve. Docking was automatically performed with DiffDock, and the resulting conformers scored based on their binding to the catalytic zinc ion and overlap with bound known inhibitors from X-ray crystallography. For the candidates selected for automatic synthesis, the reactions were batched by temperature into well plates to be run in parallel on the automated platform. With a maximum allowance of 6 well plates, the platform attempted to synthesize 79 candidates, with an average of 2.4 reaction steps required for each candidate. Based on observation of the expected mass-to-charge ratio (m/z) during automatic HPLC-MS analysis, 40 of the syntheses were successful. The successful syntheses were automatically purified with semipreparative HPLC, the concentration of the inhibitor was automatically estimated,[47] and the fluorometric inhibition assay was automatically run at 20 μM scale. The structures, synthesis plans, assay scores, and statistics for the attempted molecules are in the SI.

In experiment [2] the test system is HDAC. The conditions noted are these: cited from earlier work.
Experiment [3] concerns HDAC. The experiment is described as follows: HDAC fluorometric assay, dose-response curve (high fidelity). To be noted: read-out: IC50 (Dose-Response Curve), manually synthesized molecules.
Procedure: HDAC inhibition is automatically measured in a plate reader with a fluorometric assay (Abcam ab283378). In the plate-based assay, the liquid handler first dispenses individual purified products in dimethyl sulfoxide into each well, then adds buffer containing HDAC and a peptide substrate containing an acetylated lysine residue. The solution is agitated and incubated for 30 min at 37 °C, then a developer, which reacts with primary amines to form a fluorescent product, is dispensed and incubated for another 30 min. After the second incubation, the plate is transferred to the plate reader to measure fluorescence corresponding to uninhibited HDAC activity. The platform handles all aspects of the assay; dispensing reagents, timing incubation, transferring plates, preparing positive and negative controls, and analyzing fluorescent readouts without human input.

Regarding `O=C1CCc2cc(Nn3cnnc3)ccc21` [5-((1,2,4-triazol-4-yl)amino)-indan-1-one], the “inhibition in the single-point assay” value with HDAC [1] (second iteration, automated synthesis and assay) was determined as 11%.

`CC(C)(C)N(S(C)(=O)=O)S(=O)(=O)c1cccc(Br)c1` [a]: the IC50 with HDAC [1] is 1.14 µM. On to `Cc1ccc(S(=O)(=O)N(c2ccc([N+](=O)[O-])cc2)C2CCC2)cc1` [b], for which, in the experiment on HDAC [1], the 50% inhibitory concentration (IC50) came to 3.31 µM. Consider `O=[N+]([O-])c1ccc(N(S(=O)(=O)c2cccc3cccnc23)S(=O)(=O)C(F)(F)F)cc1` [c], for which the IC50 with HDAC [1] is 7.25 µM. Regarding `CCN(CC)Cc1ccc2cc(COC(=O)Nc3ccc(C(=O)NO)cc3)ccc2c1` [givinostat], in the experiment on HDAC [2] (FDA approved hydroxamate), the IC50 is 0.837 µM. In the case of `CC(/C=C/C(=O)NO)=C\[C@@H](C)C(=O)c1ccc(N(C)C)cc1` [trichostatin A], in the experiment on HDAC [3], the half-inhibitory concentration (IC50) turned out to be 0.0018 µM. Take `CCCC(CCC)C(=O)O` [valproate]: the IC50 with HDAC [2] (FDA approved nonhydroxamate inhibitor) is 180 µM.

For orientation: IC50 means the concentration at which inhibition is half-maximal.
